Source: patent US12042483B2, “Prophylactic and therapeutic drug for nonalcoholic fatty liver disease” (Kowa Company, Ltd., priority 2017, dated 2024)

Key:
Assay type in all cases: in vivo
[1] = tested on: NASH-HCC mouse; assay: Ballooning of hepatocytes score, NASH-HCC mouse model (Example 2, Compound 1 with ipragliflozin); settings: 3 weeks, group mean of scores 0-2, control 1.50, not significant vs control
Experimental: Ballooning of hepatocytes in each mouse was scored under blind conditions according to the following criteria (Kleiner et al., Hepatology 41, 1313-21, 2005). No balloon cells: 0 Balloon cell is rare (Few balloon cells): 1 Many Balloon cells or prominent (Ballooning): 2 Then, the mean value of the scores (ballooning score) was calculated in each group and the values were shown (FIG. 2). Statistical processing was performed using statistical software EZR, which extends the functions of R and R commander. The software is distributed free of charge on the website of Jichi Medical University Saitama Medical Center (Bone Marrow Transplantation (2013) 48, 452-458). The Steel test (N=5 to 7) was performed using EZR, the drug administration group was labeled with the mark * in figures when the group had the significant difference at p<0.05 with respect to the control group, and labeled with the mark ** when the group had the significant difference at p<0.01. The effect of Compound 1 combined with ipragliflozin was examined in NASH-HCC mice (Non-Patent Document 9). NASH-HCC mice were prepared in the same manner as in 1) of Example 1, and were used for this experiment. […]

[2] = tested on: NASH-HCC mouse; assay: Lipid droplet size in hepatocytes, NASH-HCC mouse model (Example 1, Compound 1 with tofogliflozin); settings: 3 weeks, control 1.17, not significant vs control
Experimental: A NASH-HCC mouse is a model animal that develops liver cirrhosis from fatty liver via NASH when it is fed with a high fat diet, and subsequently develops hepatocellular carcinoma (Non-Patent Document 9). The effect of compound 1 combined with tofogliflozin was examined using the NASH-HCC mouse model. NASH-HCC mice were prepared with reference to Non-Patent Document 9, and were used for this experiment. Specifically, male C57BL/6J mice were subcutaneously administered 200 μg of streptozotocin on the second day after birth. The mice were fed ad libitum with a high-fat diet (HFD-32, Clea Japan, Inc.) for 2 weeks starting from 4-week-old. The mice were separated into four groups as described in below 2) and were administered drugs from 6-week-old to 9-week-old as described in below 3). Daily food consumption of the mice in each group were measured while the drugs were administered so that the mice of all groups were fed with the same amount of food as those for the control group. […] Using the specimens, the lipid droplet size in hepatocyte was analyzed by image analysis software Image J. The area of 6000 to 10,000 lipid droplets was measured in each specimen. The median of the lipid droplet area was calculated for each mouse and then the median and quartile were calculated for each group based on the median for each mouse in the group. […]

[3] = tested on: NASH-HCC mouse; assay: Ballooning of hepatocytes score, NASH-HCC mouse model (Example 1, Compound 1 with tofogliflozin); settings: 3 weeks, group mean of scores 0-2, control 1.33, not significant vs control
Experimental: A NASH-HCC mouse is a model animal that develops liver cirrhosis from fatty liver via NASH when it is fed with a high fat diet, and subsequently develops hepatocellular carcinoma (Non-Patent Document 9). The effect of compound 1 combined with tofogliflozin was examined using the NASH-HCC mouse model. NASH-HCC mice were prepared with reference to Non-Patent Document 9, and were used for this experiment. Specifically, male C57BL/6J mice were subcutaneously administered 200 μg of streptozotocin on the second day after birth. The mice were fed ad libitum with a high-fat diet (HFD-32, Clea Japan, Inc.) for 2 weeks starting from 4-week-old. […] Daily food consumption of the mice in each group were measured while the drugs were administered so that the mice of all groups were fed with the same amount of food as those for the control group. […] Using the specimens, the lipid droplet size in hepatocyte was analyzed by image analysis software Image J. The area of 6000 to 10,000 lipid droplets was measured in each specimen. The median of the lipid droplet area was calculated for each mouse and then the median and quartile were calculated for each group based on the median for each mouse in the group. […] Ballooning of hepatocytes in each mouse was scored under blind conditions according to the following criteria (Kleiner et al., Hepatology 41, 1313-21, 2005). […]

[4] = 0.1 mg/kg Compound 1, oral once a day
[5] = 10 mg/kg tofogliflozin, oral once a day

For `CC[C@@H](Oc1cccc(CN(CCCOc2ccc(OC)cc2)c2nc3ccccc3o2)c1)C(=O)O` [Compound 1, (R)-2-[3-[[N-(benzoxazol-2-yl)-N-3-(4-methoxyphenoxy)propyl]aminomethyl]phenoxy]butyric acid], the ballooning score [1, 4] was 1.35, the “median of lipid droplet size” value [2, 4] was 1.00 μm^2 and the ballooning score [3, 4] was 0.60.

`OC[C@H]1O[C@@H](c2ccc(F)c(Cc3cc4ccccc4s3)c2)[C@H](O)[C@@H](O)[C@@H]1O` [ipragliflozin, (1S)-1,5-anhydro-1-C-{3-[(1-benzothiophen-2-yl)methyl]-4-fluorophenyl}-D-glucitol] gave a ballooning score ([1]; 3 mg/kg ipragliflozin, oral once a day) of 0.88.

`CCc1ccc(Cc2ccc3c(c2)[C@]2(OC3)O[C@H](CO)[C@@H](O)[C@H](O)[C@H]2O)cc1` [tofogliflozin, (1S,3′R,4'S,5'S,6′R)-6-[(4-ethylphenyl)methyl]-6′-(hydroxymethyl)-3′,4′,5′,6′-tetrahydro-3H-spiro[2-benzofuran-1,2′-pyran]-3′,4′,5′-triol] was tested, and the “median of lipid droplet size” value [2, 5] was 1.00 μm^2 and the ballooning score [3, 5] was 0.71.
